The nature of the test: mitochondrial fusion inhibitors, confirmation, cell-based, chemical genetic, wild-type and mutant (AID 1361). The settings on record: Cell-based mitochondrial fusion phenotype, imaging.
[1] abbreviates: mutant cells, measured here: mutant cell line IC50.

Activity calls are given as the source filed them. The rule behind the calls is not given here.

On to `Cc1onc(-c2ccccc2Cl)c1C(=O)Nc1nnc(-c2ccc(Br)cc2)s1`, for which the IC50 reads like this: (WT cells) 8.39 µM; under setting [1], over 25 µM.

With `COC(=O)c1c(NC(=O)CN2CCC3(O)CCCCC3C2c2ccc(F)cc2)sc(C)c1C` (stereo not drawn), the IC50 is, setting by setting: (WT cells) 14.4 µM; under setting [1], over 25 µM.

As for `CC1CCCCN1C(=O)Cn1cc(/C=C2/C(=O)Nc3ccccc32)c2ccccc21` (stereo not drawn), the IC50 by setting is: (WT cells) 24.4 µM; under setting [1], over 25 µM.

In the case of `CN1CC(=O)Nc2ccc(F)cc2C1=O`, the IC50 is, setting by setting: (WT cells) > 25 µM (inactive); under setting [1], over 25 µM.

For `O=S(Cc1ccc(Br)cc1)Cc1nnc(SCc2ccc(Br)cc2)n1-c1ccccc1` (stereo not drawn), the IC50 was 13.7 µM (WT cells) and over 25 µM under setting [1].

Consider `O=C(CCn1nc(-c2ccccc2)c2ccccc2c1=O)NCC1CCCO1` (stereo not drawn), for which the IC50 is, setting by setting: (WT cells) > 25 µM (inactive); under setting [1], over 25 µM.

With `O=c1c2ccccc2[nH]c(=S)n1-c1ccc2c(c1)OCO2`, the IC50 was > 25 µM (inactive) (WT cells) and over 25 µM under setting [1].

On to `COc1ccc(NC(=S)Nc2ccc(OCc3ccccc3)cc2)c(OC)c1`, for which the 50% inhibitory concentration (IC50) reads like this: (WT cells) 17.4 µM; under setting [1], 24.9 µM.

For the compound `Cc1ccc(-n2cc(C(=O)c3ccc(F)cc3)nn2)cc1Cl`, the IC50 runs as follows: (WT cells) > 25 µM (inactive); under setting [1], over 25 µM.

With `CCCCNC(=O)C1=C(N)C(C(=O)Nc2ccc(C)c(S(=O)(=O)N3CCCCC3)c2)SC1=Nc1ccc(C)cc1C` (stereo not drawn), the IC50 runs as follows: (WT cells) > 25 µM (inactive); under setting [1], over 25 µM.

On to `CC1=CCC[C@@H]2[C@@](C)(CC/C(C)=C/C(=O)O)[C@H](C)CC[C@@]12C`, for which the IC50 is, setting by setting: (WT cells) 21.7 µM; under setting [1], over 25 µM.

Take `CCOc1ccccc1N1CCN(C(=O)Nc2ccc(Cl)c(Cl)c2)CC1`: the IC50 was 20.9 µM (inactive) (WT cells) and over 12.5 µM under setting [1].

In the case of `O=C1NC(=O)C(CCc2ccncc2)(Cc2cccc(Cl)c2Cl)C(=O)N1c1ccc(Br)cc1` (stereo not drawn), the IC50 (WT cells) is 10.1 µM and the IC50 under setting [1] was over 25 µM.

With `CC(C)CCNC(=O)CCCOc1cc(=O)n(C)c2ccccc12`, the IC50 is > 25 µM (inactive) (WT cells) and over 25 µM under setting [1].

In the case of `Cc1nn(-c2ccccc2)c(C)c1C(=O)OCC(=O)N1CCN(S(=O)(=O)c2ccccc2)CC1`, the IC50 is > 25 µM (inactive) (WT cells) and over 25 µM under setting [1].

Regarding `CCCCN(CCCC)C1=Nc2ccccc2N/C1=C(/C#N)C(=O)OCC`, the IC50 is 6.94 µM (WT cells) and over 25 µM under setting [1].

In the case of `O=C(COc1ccccc1[N+](=O)[O-])N/N=C/C=C/c1ccco1`, the IC50 (WT cells) is > 25 µM (inactive) and the IC50 under setting [1] was over 25 µM.

For `O=C(c1ccc(-c2nnc(-c3ccccc3)o2)cc1)N1CCCCCC1`, the IC50 was > 25 µM (inactive) (WT cells) and over 25 µM under setting [1].

For `c1ccc(Cn2c(CNc3nc4ccccc4n3CCN3CCCCC3)nc3ccccc32)cc1`, the IC50 is > 25 µM (inactive) (WT cells) and over 25 µM under setting [1].

As for `CCOC(=O)c1cc(-c2ccc3c(c2)OCO3)nc2onc(C)c12`, the IC50 was > 25 µM (inactive) (WT cells) and over 25 µM under setting [1].

On to `O=c1cc(N2CCCCC2)c(-c2ccccc2)nn1Cc1c(Cl)cccc1Cl`, for which the IC50 by setting is: (WT cells) 5.39 µM; under setting [1], over 25 µM.

`CC(C)Cc1nc(N2CCN(C(=O)c3ccccc3)CC2)c(C#N)c2c1CCC2`: the IC50 is 16.3 µM (WT cells) and over 25 µM under setting [1].

As for `COc1ccccc1C1(CCNS(=O)(=O)c2ccc(C)cc2)CCOC(C(C)C)C1` (stereo not drawn), the IC50 (WT cells) is 21 µM and the IC50 under setting [1] was over 25 µM.

As to `CCn1c(C(=O)N2CCc3ccccc3C2)cc2oc3ccccc3c21`, the IC50 reads like this: (WT cells) 8.84 µM; under setting [1], over 25 µM.

For `CCOc1ccc(NS(=O)(=O)c2cnc(Cl)c(Cl)c2)cc1`, the IC50 reads like this: (WT cells) 20.5 µM; under setting [1], over 25 µM.

As for `CC12CCC(O)CC1=CCC1C2CCC2(C)C1CCC21CCC(=O)O1` (stereo not drawn), the IC50 runs as follows: (WT cells) 15 µM; under setting [1], over 25 µM.

In the case of `Cc1ccc(/C(=N\O)c2oc3c(C)c4oc(=O)cc(C)c4cc3c2C)cc1`, the IC50 is 7.3 µM (WT cells) and over 25 µM under setting [1].

Take `Clc1ccccc1Cn1c(/C=C/c2ccco2)nc2ccccc21`: the IC50 runs as follows: (WT cells) 11.6 µM; under setting [1], 25 µM.

For `O=C(Nc1nnc(C2CC2)o1)c1ccc(S(=O)(=O)N2CCCc3ccccc32)cc1`, the IC50 by setting is: (WT cells) 13.5 µM; under setting [1], 20.8 µM.

As to `O=[N+]([O-])c1ccc(Nc2c3ccccc3nc3ccccc23)cc1`, the IC50 runs as follows: (WT cells) 12.4 µM; under setting [1], 18.1 µM.

For the compound `Fc1ccc(Cn2nnnc2C(c2cccs2)N2CCCCCC2)cc1` (stereo not drawn), the IC50 by setting is: (WT cells) > 25 µM (inactive); under setting [1], over 25 µM.

Turning to `CC(C)(C)[C@@H]1C=C(C(=O)N2CCN(Cc3ccccc3)CC2)O[C@H](OCc2ccc(CO)cc2)C1`, the IC50 by setting is: (WT cells) 23.8 µM; under setting [1], over 25 µM.

Take `O=C(NCc1ccccn1)C(=O)Nc1nc(C23CC4CC(CC(C4)C2)C3)cs1`: the IC50 by setting is: (WT cells) 15 µM; under setting [1], over 25 µM.

`Cc1ccc(NC(=O)CC2S/C(=N/N=C3\CCCc4ccccc43)NC2=O)cc1` (stereo not drawn): the IC50 by setting is: (WT cells) 22.2 µM; under setting [1], over 25 µM.

Take `COc1cc(SC)ccc1C(=O)NCC1CCCO1` (stereo not drawn): the IC50 is, setting by setting: (WT cells) > 25 µM (inactive); under setting [1], over 25 µM.

As to `COc1ccc2ccc3c(c2c1)N=C[C@]1(O3)N(C)c2ccccc2C1(C)C`, the IC50 was 8.07 µM (WT cells) and over 25 µM under setting [1].

Regarding `c1ccc(-c2nc(N3CCCCC3)nc3ccccc23)cc1`, the IC50 is 18.3 µM (WT cells) and 19.4 µM under setting [1].

With `CCc1ccc(C2=CC(c3cc(Br)ccc3F)n3ncnc3N2)cc1` (stereo not drawn), the IC50 is, setting by setting: (WT cells) 23.7 µM; under setting [1], over 25 µM.

Regarding `COCCN1C(=O)/C(=C/c2ccc(OCc3ccc(C(=O)O)cc3)c(OC)c2)SC1=Nc1ccccc1`, the IC50 (WT cells) is > 25 µM (inactive) and the IC50 under setting [1] is over 25 µM.

For the compound `CC(Oc1ccc2oc3ccccc3c2c1)C(=O)NC12CC3CC(CC(C3)C1)C2` (stereo not drawn), the IC50 is 9.61 µM (WT cells) and 15.7 µM under setting [1].

Turning to `Cc1ccc(SCC(=O)O/N=C(\N)c2cccc([N+](=O)[O-])c2)cc1`, the IC50 by setting is: (WT cells) > 25 µM (inactive); under setting [1], over 25 µM.

With `Cc1ccc(NC(=O)CCC(=O)OCC(=O)c2ccc(Oc3ccc([N+](=O)[O-])cc3)cc2)cc1C`, the IC50 was > 25 µM (inactive) (WT cells) and over 25 µM under setting [1].

Regarding `CC(C)(C)N=C1NN=C(c2cc3ccccc3o2)CS1`, under setting [1], the IC50 was over 25 µM.

Take `CC1CCc2c(sc(NC(=O)COC(=O)c3ccc(O)cc3)c2C#N)C1` (stereo not drawn): the IC50 is > 25 µM (inactive) (WT cells) and over 25 µM under setting [1].

Take `O=C(CS(=O)(=O)Cc1ccccc1)Nc1cccnc1`: the IC50 by setting is: (WT cells) > 25 µM (inactive); under setting [1], over 25 µM.

Regarding `CCCCCCP(=O)(O)c1ccccc1`, the IC50 by setting is: (WT cells) > 25 µM (inactive); under setting [1], over 25 µM.

As for `Cc1nnc(SCC(=O)N2c3ccccc3C(C)(c3ccc(Cl)cc3)CC2(C)C)s1` (stereo not drawn), the IC50 was 5.21 µM (WT cells) and over 25 µM under setting [1].

For the compound `CC1=CC(C)(C)N(S(=O)(=O)c2ccc(C)cc2)c2cc(C)ccc21`, the IC50 runs as follows: (WT cells) 11.1 µM; under setting [1], over 25 µM.

For the compound `COc1ccc(OC)c(NC(=O)COC(=O)Cc2ccc(Br)cc2)c1`, the IC50 reads like this: (WT cells) > 25 µM (inactive); under setting [1], over 25 µM.

Consider `CC(C)N=c1scc(-c2cccs2)n1/N=C/c1ccc(O)c(O)c1O`, for which the IC50 (WT cells) is > 25 µM (inactive) and the 50% inhibitory concentration (IC50) under setting [1] was over 25 µM.

On to `CCCCc1ccc(NC(=S)Nc2ccc(Cl)c(S(=O)(=O)N(C)C)c2)cc1`, for which the IC50 by setting is: (WT cells) 9.48 µM; under setting [1], over 25 µM.

`COc1ccccc1/C=C/C=N\N1CCN(Cc2ccccc2Cl)CC1`: the IC50 (WT cells) was 20.9 µM and the IC50 under setting [1] was over 25 µM.

Regarding `O=C(CSc1nnnn1-c1ccccc1)NCc1cccs1`, the IC50 runs as follows: (WT cells) > 25 µM (inactive); under setting [1], over 25 µM.

On to `COc1cccc2cc(C(=O)N3CCc4ccccc43)c(=O)oc12`, for which the IC50 was > 25 µM (inactive) (WT cells) and over 25 µM under setting [1].

For `CCOC(=O)C1=NN(c2cccc(C)c2)C2(S1)SC(C(C)=O)=C(C)N2c1ccccc1` (stereo not drawn), the IC50 (WT cells) was 8.2 µM and the IC50 under setting [1] was over 25 µM.

Regarding `O=C(CCn1nnc2ccccc21)Nc1nnc(Cc2ccccc2)s1`, the IC50 (WT cells) was > 25 µM (inactive) and the IC50 under setting [1] is over 25 µM.

As to `Clc1ccc2c(c1)C(c1ccccc1Cl)=NCc1nnc(N3CCN(CCSc4ccccc4)CC3)n1-2`, the IC50 is, setting by setting: (WT cells) 13.9 µM; under setting [1], over 25 µM.

`CCOC(=O)c1c(-n2c(C)cc(C=C3C(=O)NC(=S)NC3=O)c2C)sc2c1CCCC2`: the IC50 is, setting by setting: (WT cells) 7.21 µM; under setting [1], over 25 µM.

`CCCn1c(N2CCC(Cc3ccccc3)CC2)nc2c1c(=O)[nH]c(=O)n2C`: the IC50 by setting is: (WT cells) > 25 µM (inactive); under setting [1], over 25 µM.

On to `Nc1c(C(=O)NC2CCCC2)sc2nc(-c3cccs3)ccc12`, for which the IC50 is, setting by setting: (WT cells) > 25 µM (inactive); under setting [1], over 25 µM.

In the case of `COc1ccc(S(=O)(=O)N2CCCCCC2)cc1C(=O)OCc1c(C)noc1C`, the IC50 is, setting by setting: (WT cells) > 25 µM (inactive); under setting [1], over 25 µM.

As for `c1ccc2c(c1)CCN(c1ncnc3c1[nH]c1ccccc13)C2`, the IC50 reads like this: (WT cells) > 25 µM (inactive); under setting [1], over 25 µM.

For the compound `CCCOc1ccc(-c2nc(C#N)c(N3CCC(C(N)=O)CC3)o2)cc1`, the IC50 was > 25 µM (inactive) (WT cells) and over 25 µM under setting [1].

Take `CCC(C)Nc1c([N+](=O)[O-])cc(C)cc1[N+](=O)[O-]` (stereo not drawn): the IC50 runs as follows: (WT cells) > 25 µM (inactive); under setting [1], over 25 µM.

In the case of `COC(=O)C1=CN(CCOC23CC4CC(CC(C4)C2)C3)C=C(C(=O)OC)C1c1ccsc1`, the IC50 by setting is: (WT cells) 17 µM; under setting [1], over 25 µM.

In the case of `CCS(=O)(=O)Nc1cccc(-c2cc(-c3ccccc3)c3cc(C)ccc3n2)c1`, the IC50 (WT cells) was 6.46 µM and the IC50 under setting [1] was over 25 µM.

Take `O=C(Nc1ccc2c(c1)nc1n2CCN(Cc2ccccc2)C1)c1cccs1`: the IC50 was > 25 µM (inactive) (WT cells) and over 25 µM under setting [1].

One may read the IC50 as the midpoint of a concentration-inhibition curve.

The values above are taken from PubChem BioAssay AID1361 (SRMLSC, 2008).
